Drawing on the supplement of paper PMC6045584, this text covers surviving fraction for 3 test systems.

Compound in this assay: COc1cccc2c1C(=O)c1c(O)c3c(c(O)c1C2=O)C[C@@](O)(C(=O)CO)C[C@@H]3O[C@H]1C[C@H](N)[C@H](O)[C@H](C)O1 [DOXORUBICIN]
As to the kind of experiment: surviving fraction relative to DMSO-only wells; higher = less growth inhibition. Particulars: exposure time: 5 days. The method in brief: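 For each tumour cell line, log-phase cells were put into 384-well plates at 250–500 cells per well, then after 24 hours exposed continuously for five days to inhibitors at 0.5, 1, 5, 10, 50, 100, 500 and 1000 nM. Viability was assessed by CellTiter-Glo luminescence, with surviving fraction expressed relative to the median of DMSO-only wells. Lines were screened three times and retained only if replicate Pearson r exceeded 0.7 and median Z' exceeded 0.3.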

± gives the standard deviation of the averaged measurements.

Turning to VP229 BREAST, the surviving fraction was found to be 1.18 ± 0.067 (0.5 nM); 1.11 ± 0.14 (1 nM); 1 ± 0.11 (5 nM); 0.931 ± 0.022 (10 nM); 0.835 ± 0.11 (50 nM); 0.567 ± 0.027 (100 nM). The surviving fraction runs as follows: (500 nM) 0.569 ± 0.13; (1000 nM) 0.233 ± 0.056.
Regarding YAMATO SYNOVIAL, the surviving fraction (0.5 nM) was 1.1 ± 0.058; the surviving fraction (1 nM) amounted to 1.14 ± 0.058; the surviving fraction (5 nM) is 0.963 ± 0.069; the surviving fraction (10 nM) was found to be 0.7417 ± 0.0035; the surviving fraction (50 nM) was determined as 0.388 ± 0.018; the surviving fraction (100 nM) was 0.329 ± 0.03. Also, the surviving fraction came out at 0.258 ± 0.012 (500 nM) and 0.341 ± 0.016 (1000 nM).
As for ZR751 BREAST, the surviving fraction (0.5 nM) is 1.12 ± 0.095; the surviving fraction (1 nM) is 1.08 ± 0.16; the surviving fraction (5 nM) amounted to 0.786 ± 0.074; the surviving fraction (10 nM) is 0.846 ± 0.12; the surviving fraction (50 nM) stood at 0.585 ± 0.047; the surviving fraction (100 nM) is 0.361 ± 0.054. The surviving fraction was determined as 0.174 ± 0.018 (500 nM) and 0.0463 ± 0.00058 (1000 nM).
